Results reported in patent US20130237582A1, “PHARMACEUTICAL COMBINATION OF PACLITAXEL AND A CDK INHIBITOR” (Piramal Enterprises Limited, priority 2010, published 2013).
“Also recorded” adds a separate entry of the source.

Assays:
[1] = tested on: MCF-7; experiment: Cell cycle progression and apoptosis by flow cytometry (sub-G1); format: cell-based, human; conditions: 4.5 μM
Method: Time dependent effect of Compound A on cell cycle progression and apoptosis was evaluated in two breast cancer cell lines. The asynchronous human breast cancer cell lines MCF-7 (Her low, ER+, PR+, BRCA+/−allelic loss) and MDA-MB-231 cells were seeded in […] tissue culture flask at a density of 0.5×10^6 cells per flask in RPMI 1460 with 10% FCS. After 24 h, cells were treated with 4.5 μM of Compound A for 0, 24, 48 and 72 h. Both detached and adherent cells were harvested (trypsinised) at different time points as mentioned in Table 3. After washing in phosphate buffered saline (PBS), cells were fixed in ice-cold 70% ethanol and stored at −20° C. until further analysis.
Before analysis, cells were washed twice with PBS to remove the fixative and re-suspended in PBS containing 50 μg/mL propidium iodide and 50 μg/mL RNaseA. After incubation at room temperature (20-35° C.) for 20 min, cells were analyzed using flow cytometry. A Becton Dickinson FACS Calibur flow cytometer (BD, USA) was used for these studies. The argon ion laser set at 488 nm was used as an excitation source. Cells with DNA content between 2n and 4n were designated as being in G1, S and G2/M phases of the cell cycle, as defined by the level of red fluorescence. […] The number of cells in each cell cycle compartment was expressed as a percentage of the total number of cells present. The results are shown in Table 3 and graphically presented in FIG. 3A (MCF-7 cell lines) and FIG. 3B (MDA-MB-231 cell lines).

[2] = biological target: T1, PARP (Homo sapiens, UniProt P09874); experiment: PARP enzyme activity measured by PAR polymers (Western blot), MDA-MB-231; format: cell-based; conditions: 1.5 μM and 5 μM, 24 h
T1 construct: endogenous in cells; host or cells: MDA-MB-231; MDA-MB-468
T1 sequence (P09874 2-1014 limits assumed): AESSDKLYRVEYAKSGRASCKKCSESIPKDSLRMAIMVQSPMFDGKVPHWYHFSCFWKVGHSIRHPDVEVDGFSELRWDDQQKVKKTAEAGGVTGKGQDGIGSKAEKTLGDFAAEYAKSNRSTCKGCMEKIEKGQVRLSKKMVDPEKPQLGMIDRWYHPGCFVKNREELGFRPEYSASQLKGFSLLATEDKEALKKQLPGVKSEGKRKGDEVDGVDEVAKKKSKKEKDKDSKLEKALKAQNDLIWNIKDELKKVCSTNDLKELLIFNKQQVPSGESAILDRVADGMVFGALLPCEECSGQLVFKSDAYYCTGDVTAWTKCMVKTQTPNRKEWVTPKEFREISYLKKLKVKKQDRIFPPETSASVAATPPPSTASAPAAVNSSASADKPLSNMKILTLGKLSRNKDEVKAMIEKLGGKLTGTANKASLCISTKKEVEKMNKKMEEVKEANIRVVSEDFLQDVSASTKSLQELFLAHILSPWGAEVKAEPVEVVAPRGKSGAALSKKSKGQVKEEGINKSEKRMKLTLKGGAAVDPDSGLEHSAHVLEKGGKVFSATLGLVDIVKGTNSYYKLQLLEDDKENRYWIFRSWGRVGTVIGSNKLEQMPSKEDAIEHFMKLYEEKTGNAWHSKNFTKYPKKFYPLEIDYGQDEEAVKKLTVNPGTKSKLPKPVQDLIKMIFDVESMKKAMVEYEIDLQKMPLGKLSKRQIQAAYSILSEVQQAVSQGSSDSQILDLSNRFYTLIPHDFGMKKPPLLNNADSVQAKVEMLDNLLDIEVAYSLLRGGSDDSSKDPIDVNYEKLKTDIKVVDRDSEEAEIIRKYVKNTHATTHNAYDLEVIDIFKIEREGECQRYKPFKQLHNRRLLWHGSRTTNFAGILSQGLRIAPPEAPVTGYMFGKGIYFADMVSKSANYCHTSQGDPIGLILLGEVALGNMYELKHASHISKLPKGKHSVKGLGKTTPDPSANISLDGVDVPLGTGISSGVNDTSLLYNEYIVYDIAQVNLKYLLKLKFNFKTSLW
Method: (§1) To study PARP enzyme activity, PAR polymer formation was measured. MDA-MB-231 and MDA-MB-468 cells were seeded in RPMI 1460 medium with 10% FCS in […] tissue culture flask and incubated for 24 h. These cells were treated at 1.5 μM and 5 μM of Compound A for 24 h. The cells were harvested (trypsinised) and lysed using lysis buffer. Western blotting (Molecular Cancer Therapeutics, 2007, 6, 918-925) was done with specific antibody to PAR.
(§2) Correlation of PARP activity and cell cycle proteins cyclin D1, total Rb and pRb 780 were studied in two TNBC cell lines viz. MDA-MB-468 and MDA-MB-231. MDA-MB-231 and MDA-MB-468 cells were seeded in RPMI 1460 medium with 10% FCS in […] tissue culture flask and incubated for 24 h. These cells were treated at 1.5 μM and 5 μM Compound A for 24 h. The cells were harvested (trypsinised) and lysed using lysis buffer. Western blotting was carried out (Molecular Cancer […], 2007, 6, 918-925) using specific antibody to PAR, PARP, cyclin D1, CDK4 and pRb Ser 780.

[3] = biological target: T1, PARP; experiment: PARP enzyme activity measured by PAR polymers (Western blot), MDA-MB-468; format: cell-based; conditions: 1.5 μM and 5 μM, 24 h, hydrochloride
Method: as §1, §2

[4] = tested on: VEGF; experiment: VEGF reporter gene based assay (M-9 cells); format: cell-based; conditions: Homo sapiens, hypoxia, 20-24 h, read-out: IC50 for VEGF inhibition under hypoxia
Method: A cell line M-9 is MDA-MB-231 which is stably co-transfected with the VEGF-Luc construct (VEGF promoter in pGL2-basic) and a plasmid containing the Geneticin (G418) resistance gene which forms VEGF promoter reporter gene. The expression of the reporter gene in the clone cells, as measured by luciferase activity, is stable.
The effect of Compound A on VEGF inhibition was evaluated using the VEGF reporter gene based assay.
Lysis Assay Buffer (1×) • Tris-Phosphate (pH 7.8)-125 mM, DTT-10 mM, EDTA-10 mM, Glycerol-50% and Triton X-100-5%.
Luciferase Assay Reagent (LAR) • Luciferase Assay Buffer-8 mL, 530 μM ATP-530 μL, 270 μM CoA-1 mL and 170 μM Luciferin-1 mL.
Luciferase Assay Buffer (LAB) (1×) • Tricin (pH 7.8)-20 mM, Magnesia Alba-1.07 mM, MgSO4-2.67 mM, EDTA-0.1 mM and DTT-33.3 mM. ATP Stock made in LAB=5.85 mg/mL CoA Stock made in LAB=2.1 mg/mL Luciferin Stock made in LAB=1.5 mg/mL
1. M-9 cells were sub-cultured and maintained in RPMI-1640 Medium with supplement of 10% FBS, and 4 μL/ml G418 (Stock 100 mg/mL) in a humidified incubator at 37° C. and 5% CO2. 2. Cells were seeded at density of 3×10^4 cells/well in 180 μL volume in tissue culture grade 96 well white plates as well as transparent plates and allowed to adhere for 16-20 h in humidified CO2 incubator (5% CO2) at 37° C. A total of two sets of plates were made, as the incubation conditions are different. 3. Compound A, Sutent® and BSI-201 were diluted in medium serially so that final desired concentrations are achieved in the respective wells. (not more than 0.5% concentration of DMSO in the wells). 4. INCUBATION CONDITIONS: One set of plates are incubated under ambient atmospheric condition with 5% CO2, referred hereafter as NORMOXIC/OXIC PLATE. […] To all the wells, 100 μL Luciferase Assay Reagent (LAR) are added, plates are immediately read for Luminescence on TOPCOUNT™ (Packard, USA). The percentage inhibitions and Inhibitory Concentration (IC50) or Effective Concentration (EC50) are calculated in comparison with Control (untreated) values. […]

PARP enzyme activity (PAR polymer formation) [2]: inhibits PARP enzyme activity
IC50 [4]: 310 nM
Structure (SMILES): CN1CC[C@@H](c2c(O)cc(O)c3c(=O)cc(-c4ccccc4Cl)oc23)[C@@H]1CO.Cl [Compound A, (+)-trans-2-(2-Chloro-phenyl)-5,7-dihydroxy-8-(2-hydroxymethyl-1-methyl-pyrrolidin-3-yl)-chromen-4-one hydrochloride]
% Apoptosis ([1]; 0 h): 1%
% Apoptosis ([1]; 24 h): 52%
% Apoptosis ([1]; 48 h): 80%
% Apoptosis ([1]; 72 h): 88%
PARP enzyme activity (PAR polymer formation) [3]: the formation of PAR polymers is not inhibited; also recorded: no change in the PAR polymer formation
